Test results from patent publication US6458557B1, “Enhancing growth in gram-positive microorganisms using formate supplementation and inactivation of formate-associated transport proteins” (Genencor International, Inc., priority 1997, dated 2002).

Legend:
[1] = tested on: Bacillus subtilis (BG125); assay: Shake flask growth of BG125 in 1% SBG (Klett reading and flask pH); format: cell-based; conditions: for growth in shake flask compared to other flasks: 1% SBG pH 7, 37° C., 3 g/l (44 mM) sodium formate and/or 80 mM MOPS (FIG. 5)
Description: (§1) The Bacillus subtilis strain used was a derivative of I168 called BG125 (hisA1 thr5 trpC2) provided by J. A. Hoch. […] MM294 competent cells (Ausubel et al. 1992, Short Protocols in Molecular Biology. John Wiley and Sons, New York) were used for plasmid construction and propagation. LB broth and agar were used for growing MM294 cells and were supplemented with 50 ug/ml carbenicillin for selection. BG125 was grown on LB agar or in LB liquid medium supplemented with 10 μg/ml of kanamycin for selection.
Trimethaprim was dissolved in 50% ethanol and added to a final concentration of 50 ug/ml where indicated when the growth had reached a Klett reading between 20-30 units. The additions for trimethaprim experiments were added at the following final concentrations: 10 ug/ml glycine, 10 ug/ml methionine, 50 ug/ml thymidine, 20 ug/ml adenosine, and 20 ug/ml guanosine.
(§2) Prior to shake flask experiments BG125 was grown from frozen stocks onto LB agar and grown overnight at 37° C. Cells were removed from the plates to 6 mls of SBG1% in test-tubes and grown at 37° C. for three hours. 0.2 mls of the seed culture was used to inoculate a pre-warmed 300 ml nephlometer flask containing 20 mls of the appropriate media. Flasks were incubated at 37° C. (except where indicated) and 300 rpm in a New Brunswick Scientific Shaker. At the indicated time points, the amount of cell growth was determined by a Klett-Summerson Photoelectric Colorimeter, the pH of the flask was taken using a Corning pH/iometer, and 1.25 mls was removed for further processing. The sample was spun in an eppendorf microfuge and 1 ml of supernatant was removed and mixed with 30 μls of perchloric acid HPLC analysis. The remaining supernatant was saved for glucose analysis. All samples were stored at −70° C. until analysis. Medium pH titrations were performed by the stepwise addition of HCl followed by pH measurement. The bactericidal tests of pH and formate on B. subtilis were carried out by growing BG125 as described above in SBG1% to a density of 5×10^6 cfu/ml. The cells were then adjusted to a concentration of 5×10^4 cfu/ml with buffered SBG1% adjusted to the pH indicated, with and without 50 mM formate. Cultures were then incubated at 37° C. with shaking for 3 hours. Samples were taken at 0, 1 2 and 3 hours, serially diluted and plated to LB at 37° C. for determination of cell viability.

[2] = Medium pH titration by stepwise addition of HCl; format: physicochemical; conditions: 1% SBG with 3 g/l sodium formate or 80 mM MOPS, HCl added (FIG. 6)
Description: as §2, with “At the indicated time points, the amount of cell growth was determined by a Klett-Summerson Photoelectric Colorimeter, the pH of the flask was taken using a Corning pH/iometer, and 1.25 mls was removed for further processing.” left out

[3] = tested on: Bacillus subtilis (BG125); assay: Bactericidal tests of pH and formate (cell viability by plating); format: cell-based
Description: as §1, §2

[4] = tested on: BG125 with yrhG (FTAP 1) gene interruption; assay: Shake flask growth of BG125 with interruption of yrhG (FTAP 1); format: cell-based, Bacillus subtilis; conditions: 1% SBG, 3 g/l formate
From the text: (§3) The PCR product was digested with BamHI and PstI and ligated with the 5.3-Kb BamHI-PstI fragment from plasmid pUC/Ts/Kan to construct the yrhG-homologue interruption plasmid pTRANS1. […] The PCR product was digested with BamHI and PstI and ligated with the 5.3-Kb BamHI-PstI fragment from plasmid pUC/Ts/Kan to construct the ywcJ-homologue interruption plasmid. […] The sequencing primers used were the mp19/pUC19 24-mer reverse sequencing primer and the mp19/pUC19 24-mer sequencing primer from New England Biolabs.
(§4) Resulting kanamycin resistant transformants were grown overnight in LB liquid medium containing kanamycin at 45° C. Integrants were plated and then colony purified on LB plates containing kanamycin at 45° C. Isolated colonies were then frozen in LB liquid medium plus 30% glycerol at −70° C. for preservation.
(§5) Prior to shake flask experiments BG125 was grown from frozen stocks onto LB agar and grown overnight at 37° C. Cells were removed from the plates to 6 mls of SBG1% in test-tubes and grown at 37° C. for three hours. 0.2 mls of the seed culture was used to inoculate a pre-warmed 300 ml nephlometer flask containing 20 mls of the appropriate media. Flasks were incubated at 37° C. (except where indicated) and 300 rpm in a New Brunswick Scientific Shaker. […]

[5] = tested on: BG125 with ywcJ (FTAP 2) gene interruption; assay: Shake flask growth of BG125 with interruption of ywcJ (FTAP 2); format: cell-based, Bacillus subtilis; conditions: 1% SBG, 3 g/l formate, ywcJ (FTAP 2) interruption (FIG. 17)
From the text: as §3, §4, §5

[6] = tested on: Bacillus subtilis (BG125); assay: Metabolic by-products (HPLC) and glucose in shake flask supernatants; format: cell-based; conditions: flasks of FIG. 5: 3 g/l sodium formate, 80 mM MOPS; control about 1.5 g/L
Description: as §2, with “At the indicated time points, the amount of cell growth was determined by a Klett-Summerson Photoelectric Colorimeter, the pH of the flask was taken using a Corning pH/iometer, and 1.25 mls was removed for further processing.” left out

## O=C[O-].[Na+] [sodium formate, Sodium formate]
[1]
  growth in shake flask compared to other flasks: more total growth
[1]; 3 g/l sodium formate, 1% SBG
  lag in the initial growth rate: slight lag
[1]; flask containing trimethaprim and growth enhancing additives (FIG. 11)
  rate of growth when formate was added: significantly reduced
[1]; higher concentrations of sodium formate, up to 21 g/l (FIG. 7)
  duration of the initial lag period: correlation between increasing concentrations of formate and the duration of the initial lag period
[1]; sodium formate up to 21 g/l (FIG. 7), versus control flask
  culture density reached after the lag period: reached higher densities than the control flask
[2]
  buffering activity in pH titration: little buffering activity down to pH 5.0
[3]; pH 3.6, 50 mM formate, also without formate
  loss of viability: lost complete viability within two hours
[3]; pH 3.6, one hour, 50 mM formate, 1.8 % without formate
  percent of survivors based on the initial titer: 0.13%
[3]; pH 4.0, 3 hours, 50 mM formate, 38 % without formate
  percent survivors: 1.2%
[3]; pH 4.6, 50 mM formate
  viability: no decline in viability
[3]; pH 7.0, 50 mM formate
  viability: no decline of viability
[4]; yrhG (FTAP1) interruption (FIG. 16)
  decrease in the growth enhancement normally seen with exogenous formate: ~50%
[4]; yrhG interruption (FIG. 16)
  growth enhancement effect of formate in interrupted strain: reduced the normal growth enhancement effect of formate by half
[5]
  effect of formate on growth of interrupted strain: toxic effect which caused a decline of growth well below growth of the control strain with out formate

## COc1cc(Cc2cnc(N)nc2N)cc(OC)c1OC [trimethaprim, Trimethaprim, reference compound]
[1]; trimethaprim 50 ug/ml added at Klett 20-30, SBG1% (FIG. 11)
  effect on growth compared to SBG1% alone: inhibitory effect

## O=S(=O)(O)CCCN1CCOCC1 [MOPS, reference compound]
[1]
  growth in shake flask compared to other flasks: near the levels of the formate containing flask
[2]
  buffering activity in pH titration: showed buffering activity in the expected range
[6]
  acetate level reached: ~2 g/L
